Measurements published in PubChem BioAssay (NCI).
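Five compound concentrations were applied to cells in 96-well plates for 48 hours; endpoints were derived by simple linear interpolation of the resulting dose-response curve. TGI is the concentration that stops growth completely.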

What was measured:
Assay in all cases: inhibition of tumour cell growth, NCI panel, 48 h
CCRF-CEM leukemia = test system: CCRF-CEM leukemia
EKVX NSCLC = test system: EKVX NSCLC
HCT-15 colon = test system: HCT-15 colon
K-562 leukemia = test system: K-562 leukemia
M19-MEL melanoma = test system: M19-MEL melanoma
MOLT-4 leukemia = test system: MOLT-4 leukemia
NCI-H522 lung = test system: NCI-H522 lung
RXF 393 renal = test system: RXF 393 renal
SK-OV-3 ovarian = test system: SK-OV-3 ovarian
SNB-19 CNS = test system: SNB-19 CNS
SNB-75 CNS = test system: SNB-75 CNS
TK-10 renal = test system: TK-10 renal
UACC-62 melanoma = test system: UACC-62 melanoma
IGROV1 ovarian = test system: IGROV1 ovarian
A498 renal = test system: A498 renal
HS 578T breast = test system: HS 578T breast
MCF7 breast = test system: MCF7 breast
MDA-MB-231 breast = test system: MDA-MB-231 breast
NCI/ADR-RES ovarian = test system: NCI/ADR-RES ovarian
PC-3 prostate = test system: PC-3 prostate

Row | SMILES | TGI (CCRF-CEM leukemia) [µM] | TGI (EKVX NSCLC) [µM] | TGI (HCT-15 colon) [µM] | TGI (K-562 leukemia) [µM] | TGI (M19-MEL melanoma) [µM] | TGI (MOLT-4 leukemia) [µM] | TGI (NCI-H522 lung) [µM] | TGI (RXF 393 renal) [µM] | TGI (SK-OV-3 ovarian) [µM] | TGI (SNB-19 CNS) [µM] | TGI (SNB-75 CNS) [µM] | TGI (TK-10 renal) [µM] | TGI (UACC-62 melanoma) [µM] | TGI (IGROV1 ovarian) [µM] | TGI (A498 renal) [µM] | TGI (HS 578T breast) [µM] | TGI (MCF7 breast) [µM] | TGI (MDA-MB-231 breast) [µM] | TGI (NCI/ADR-RES ovarian) [µM] | TGI (PC-3 prostate) [µM]
1 | N#Cc1ccc(Nc2cnc3cc(N)ccc3n2)cc1 | > 100 | > 100 | > 100 | > 100 | > 100 | > 100 | > 100 | > 100 | > 100 | > 100 | > 100 | > 100 | > 100 |  |  |  |  |  |  | 
2 | CNC(=S)NNC(=O)c1c(C)nc2sccn12 | > 100 | > 100 | > 100 | > 100 | > 100 | > 100 | > 100 | > 100 | > 100 | > 100 |  | > 100 | > 100 | > 100 |  |  |  |  |  | 
3 | CCOC(=O)c1ccc(-c2cccs2)n1C | > 100 | > 100 | > 100 | > 100 |  | > 100 | > 100 | > 100 | > 100 | > 100 | > 100 | > 100 | > 100 | > 100 | > 100 | > 100 | > 100 | > 100 | > 100 | > 100
4 | C/C=C/C=C/C1=NN(c2cccc(S(=O)(=O)O)c2)C2(C1)C(Cl)C(=O)N2c1nc2ccccc2s1 (stereo unspecified) | 13.1 | 35.6 | 31.4 | > 62.1 |  | > 68.5 | 13.3 | 24.3 | 33.9 | 29.9 | 25.9 | 27.8 | 26.2 | 25.4 | 31.8 | > 90.3 | 27 | 28.9 | > 82.7 | 26.3
5 | COC(=O)C(CCC1(C)OCCO1)C(C)=O (stereo unspecified) | > 100 | > 100 | > 100 | > 100 | > 100 | > 100 | > 100 | > 100 | > 100 | > 100 | > 100 | > 100 |  | > 100 | > 100 |  |  |  |  | 
6 | C[C@]1(O)CC(=O)c2c(c(-c3ccc4cc5c(c(O)c4c3O)C(=O)C[C@@](C)(O)C5)c3cccc(O)c3c2O)C1 | > 100 | 24.7 | 11.4 | > 100 |  | > 100 | 13.5 | 17.8 | 24.4 | 23.2 | 19.3 | 28 | 27 | 22.8 | 16.4 | 88 | > 100 | 19.3 | 25.4 | 13.2
7 | COC1=C(C)C(=O)C2C(C1=O)C(c1ccc(OC)c(OC)c1)[C@H]2C (stereo partly specified) | > 100 | > 100 | > 100 | > 100 | > 100 | > 100 | > 100 | > 100 | > 100 | > 100 | > 100 | > 100 | > 100 | > 100 | > 100 |  |  |  |  | 
8 | CCOC(=O)c1c(Nc2ccccc2)sc2cccnc12 | 71.5 | 59 | 58.3 | 82.8 |  | 55.9 | > 58.4 | > 86.6 | > 89.9 | > 86.4 | 59.3 | 86.1 | 45.3 | 47.4 | 26.2 | > 69.1 | 59.5 | > 83.5 | 67.8 | 65
9 | COC(=O)/C=C1/OC(c2ccc(Br)cc2)=C(Br)C1=O | 6.22 | 32 | 14.2 | 6.58 |  | 6.87 | 10.7 | 11.1 | 38.2 | 28.9 | 17.5 | 17.6 | 20.5 | 17 | 30.4 | 28.1 | 25.5 | 8.17 | 32.9 | 17.5
10 | Cc1cc(=O)cc2sc3cc(Cl)ccc3nc1-2 | 37.5 | 25 | 16 | 20.6 | 31.2 | > 60.8 | 7.65 | 30 | > 82.5 | 61.9 | 15.7 | 53.8 | 20.9 | 52 | 45.4 |  |  |  |  | 
11 | CCOC(=O)[C@H](Cc1ccccc1)NC(=O)c1nc[nH]c1[N+](=O)[O-] | > 100 | > 100 | > 100 | > 100 | > 100 | > 100 | > 100 |  | > 100 | > 100 | > 100 | > 100 | > 100 | > 100 | > 100 |  |  |  |  | 
12 | COc1cccc2c3cccc(OC)c3c3[nH]cnc3c12 | 3.4 | 27.9 | 3.42 | 7.16 |  | 6.27 | 2.88 | 3.42 | 34.1 | 26.9 | 8.58 | 3.91 | 30.3 | 3.46 | 33.4 | 20.5 | 2.81 | 4.11 | 9.42 | 4.6
13 | CCOC(=O)c1c(NS(=O)(=O)c2ccc(Br)cc2)sc2c1CCCC2 | > 100 | 11 | 19 | > 100 |  | 12.3 | 16.2 | 6.98 | 50 | 20.6 | 12.4 | 31.9 | 17.7 | 8.79 | 42.2 | 35.5 | > 62.9 | 16.1 | 3.72 | 11.5
14 | CC(C)=C1C(=O)C[C@]2(C)C/C=C(\C)CC/C=C(\C)CC[C@@H]12 | 19.5 | 32.5 | 15.4 | 13.6 |  | 18.2 | 13.9 | 15.2 | > 50 | > 50 | 20.2 | 22.2 | 15.3 | 19.4 | 47.9 | 28 | 30.4 | 15.4 | 14.8 | > 50
